This note sets out measurements from patent US5137922A (priority 1989, dated 1992).

One test has as its target neuraminidase (NA) (Influenza B virus (B/USSR/100/83), UniProt P16205). It is filed as biochemical, type B influenza virus, B/USSA/100/83E. As to conditions: control 11.0.
The test system of a further test is virus. The experiment in a line: Electron microscope observation of virus suspension with EGCg. As to conditions: EGCg added to suspension of the virus. The text has this: The […] (PTA) dyeing method was utilized.
Test [1] addresses hemaglutinin (HA) (Influenza A virus (A/Sichuan/2/1987(H3N2)), UniProt H9XCU1). As to the kind of experiment: Hemaglutinin activity of type A influenza virus after treatment (agglutination of red blood cells). It is filed as biochemical, A/Sichuan/2/87(H3N2). The settings on record: FIG. 1, concentration dependence.
In a further test the test system is type B influenza virus. The experiment in a line: microbe, parasite or virus in culture. It is filed as cell-based, B/USSA/100/83E. As to conditions: unidentified influenza virus, read-out: percentage of inhibition against infection; for inhibition at 4 µg/mL: 5 min; for inhibition at 1 µg/mL: 1 h.
Another test relates to type A influenza virus. The experiment in a line: microbe, parasite or virus in culture. The test is classed as cell-based, A/Sichuan/2/87(H3N2).

For orientation: inhibition means the percentage by which the read-out fell short of the control.

Like-named read-outs stand apart in the source and are kept apart here.

Turning to `O=C(O[C@@H]1Cc2c(O)cc(O)cc2O[C@@H]1c1cc(O)c(O)c(O)c1)c1cc(O)c(O)c(O)c1` [EGCg, (-)epigallocatechin gallate], the values for the NA activity on neuraminidase (NA) (50 μg/ml) and on neuraminidase (NA) (100 μg/ml) were 8.00 and 5.10, respectively. Besides, the “behavior of the virus under electron microscope” value in the test on virus was “instantaneous formation of agglutinated lumps of the viruses”. Further, in test [1], the “hemaglutinin activity inhibiting power” value is “depend on the concentration”. Besides, the inhibition at 4 µg/mL in the test on type B influenza virus turned out to be 100%. In addition, the inhibition at 1 µg/mL in the test with type B influenza virus worked out at 100%. For the same molecule, the infection inhibiting power entry in the test on type A influenza virus (FIG. 1, concentration dependence) is reported as “depend on the concentration”. In the test with type A influenza virus (unidentified influenza virus, MDCK, 1 h, read-out: inhibition of infection), the inhibition at 0.5 µg/mL is 100%. Further, the number of plaques entry in the test on type A influenza virus (virus treated 1 hour, 0.5 μg/ml) is on record as “zero”.
Regarding `O=C(O[C@@H]1Cc2c(O)cc(O)cc2O[C@@H]1c1cc(O)c(=O)c2c(O)c(O)cc([C@H]3Oc4cc(O)cc(O)c4C[C@H]3OC(=O)c3cc(O)c(O)c(O)c3)c2c1)c1cc(O)c(O)c(O)c1` [TF3, theaflavin digallate], in the test with type B influenza virus, the inhibition at 4 µg/mL was determined as 100% and the inhibition at 1 µg/mL came out at 100%.
